Experimental data reported in patent US11717500B2, “Treatment of spondyloarthritis” (PHARMACYL AB, priority 2020, dated 2023).
Structures can show the parent of a compound that is named as a salt. Where two headings read alike, the source gives them in different places.

How the values were obtained:
[1] = tested on: LPS-induced TNF-α production in RAW264.7 murine macrophage cells; test: Suppression of LPS-induced TNF-α production in RAW264.7 macrophages (ELISA); assay type: cell-based; settings: Mus musculus
Source text: Macrophages serve a critical role in the initiation and propagation of inflammatory responses by releasing proinflammatory mediators, such as TNF-α. Lipopolysaccharide (LPS) is a potent initiator of an inflammatory response. During LPS stimulation, NF-κB signaling is activated to regulate the transcription of numerous genes involved in immunity and inflammation to produce proinflammatory cytokines, such as TNF-α. Suppression of LPS-induced TNF-α production in RAW264.7 macrophages treated with AABZ was investigated by evaluation of the generation of TNF-α.
The RAW264.7 macrophage line was maintained in DMEM supplemented with 5% FBS at 37° C. in a 5% CO2-humidified air environment. The RAW264.7 cells were seeded in 96-well plates at a density of 1×10^5/ml and a volume of 200 μl/well. The cells were incubated for 24 h in medium supplemented with 10% FBS and were then pre-incubated with or without the indicated concentrations of test substances for 2 h prior to the addition of LPS (1 μg/ml). The supernatants were subsequently harvested at various time points and production of the proinflammatory cytokine TNF-α in the culture medium was determined using a commercially available enzyme-linked immunosorbent assay (ELISA) kit according to the manufacturer's protocol.
Effects of some AABZs of the invention at 1 mM on LPS-induced TNF-production in RAW264.7 murine macrophage cells are shown in Table 2.

[2] = biological target: dopamine D2 receptor (Homo sapiens (Human), UniProt P14416); test: Dopamine D2 receptor affinity, in vitro radioligand binding with 125I-spiperone; settings: 125I-spiperone as radioactive ligand
Source text: It is well-known that drug compounds that have an affinity for the striatal dopamine D2 may give rise to adverse side effects, such as short-term extrapyramidal disorders and tardive dyskinesia.

[3] = tested on: NF-κB; settings: T cells; cited from earlier work
[4] = tested on: NFAT; settings: T cells; cited from earlier work
[5] = tested on: AP-1; settings: T cells; cited from earlier work
[6] = tested on: IκBβ; settings: cited from earlier work
[7] = RAW264.7, read-out: % Inhibition of TNF-production

Chain of dopamine D2 receptor (P14416 whole entry, species assumed): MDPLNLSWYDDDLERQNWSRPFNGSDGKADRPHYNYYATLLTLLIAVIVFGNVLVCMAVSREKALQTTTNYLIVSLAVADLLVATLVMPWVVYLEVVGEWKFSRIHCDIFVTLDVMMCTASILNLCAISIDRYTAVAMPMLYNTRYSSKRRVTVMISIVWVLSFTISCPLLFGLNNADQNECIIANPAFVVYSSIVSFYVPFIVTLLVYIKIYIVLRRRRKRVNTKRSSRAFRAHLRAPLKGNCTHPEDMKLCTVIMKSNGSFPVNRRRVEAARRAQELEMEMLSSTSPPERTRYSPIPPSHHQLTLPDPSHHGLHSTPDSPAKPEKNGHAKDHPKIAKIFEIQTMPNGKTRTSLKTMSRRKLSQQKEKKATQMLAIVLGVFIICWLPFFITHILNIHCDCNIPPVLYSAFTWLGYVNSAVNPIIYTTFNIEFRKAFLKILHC

SMILES | inhibition at 1000 µM [1, 7] [%] | IC50 [2] [µM] | further results
CCN(CC)CCNC(=O)c1ccc(NC(C)=O)cc1 [4-Acetamido-N-[2-(diethylamino)ethyl]benzamide hydrochloride] |  |  | inhibition at 1000 µM ([1]; 1 mM, LPS 1 μg/ml, RAW264.7 murine macrophage cells, read-out: % Inhibition of TNF-production): 56%
CCN(CC)CCNC(=O)c1ccc(NC(=O)C(C)C)c(Cl)c1 [4-Isobutyrylamino-3-chloro-N-[2-(diethylamino)ethyl]benzamide hydrochloride] | 63 |  | 
CCC(=O)Nc1ccc(C(=O)NCCN(CC)CC)cc1Cl [4-Propanoylamino-3-chloro-N-[2-(diethylamino)ethyl]benzamide hydrochloride] | 50 |  | 
CCN(CC)CCNC(=O)c1ccc(NC(C)=O)c(Cl)c1 [Cpd A, 4-Acetamido-3-chloro-N-[2-(diethylamino)ethyl]benzamide hydrochloride] | 45 | 975 | effect on NF-κB activity [3]: inhibit activities; effect on NFAT activity [4]: inhibit activities; effect on AP-1 activity [5]: induce AP-1 activity; effect on breakdown of IκBβ [6]: inhibit breakdown
CCN(CC)CCNC(=O)c1ccc(N)c(Cl)c1 [Declopramide, declopramide] |  | 38.6 | 
